Columns and labels:
[1] = tested on: Mitochondrial G3P-DH (glycerol 3-phosphate dehydrogenase), rat liver; test: Mitochondrial G3P-DH activity in liver of steroid-fed rats (enzyme induction in rat liver by C19 steroids); type: in vivo, rat (male Sprague Dawley); details: 6 days, rat liver mitochondria
Excerpt: (§1) Administration of Hormone: Male Sprague Dawley rats weighing 125-150 gm were obtained from Sasco Inc. of Oregon, Wis. The rats were allowed free access to water and Purina Rat Chow pellets for the first day after arrival Administration of the steroids began on day two. The steroids were either administered orally (combined with the Purina Rat Chow) or injected intraperitoneal as set forth in Table 1 for 6 days.
(§2) Preparation of Liver Mitochondria and Cytosol. The treated rats were sacrificed by decapitation after 6 days of treatment. The livers were excised, placed in 10 ml of a buffer consisting of 250 mM mannitol, 70 mM sucrose, and 3 mM Hepes (hereinafter MSH buffer) at pH 7.4, weighed, removed from the buffer, minced with scissors, washed with MSH buffer, suspended in MSH buffer at a ratio of 1 gram minced liver to 5 ml MSH buffer, and homogenized with a Potter-Elvehjem rotary homogenizer.
The Mitochondria fraction was prepared by the method described in Johnson, D. and Lardy, H. A., Methods Enzymology, vol. 10, pp 94-96 (1967) which is hereby incorporated by reference. Briefly, liver homogenate was centrifuged in a Beckman Model J2-21 centrifuge, JA-20 rotor at 750 g for 10 minutes and the resulting supernatant solution centrifuged at 15,000 g for an additional 10 minutes. The resulting mitochondrial pellets were washed twice with MSH buffer, resuspended in 0.8 to 1 ml of a 35 wt % aqueous glycerol solution, and stored at -70° C.
(§3) Protein concentrations in the resultant preparations were determined by the Biuret method described in Layne E., Methods Enzymology, vol. 3, pp 450451 (1957) which is hereby incorporated by reference. Briefly, the protein concentrations were determined by treating a dilute protein solution with copper tartrate solution and measuring the optical density at 540 nm.
Enzyme Assays. Mitochondrial G3P-DH activity was measured by the method described in Wernette, M. E., Ochs, R. S., and Lardy, H. A., J. Biol. Chem., vol. 256, pp 12767-12771 (1981) which is a modified version of the method described in Gardner, R. S., Anal. Biochem., vol. 59, pp 272-276 (1974). Both references are hereby incorporated by reference. Briefly, aliquots of the previously prepared mitochondria containing 0.1 to 0.2 mg of protein were incubated in a test tube containing 50 mM sn-glycerol-3-P,50 mM potassium phosphate (pH 7.0), 1 mM KCN, and 0.2% p-iodonitrotetrazolium violet in a total volume of 0.4 ml for 30 min at 37° C. The incubating mitochondria were continuously agitated during the incubation period by a Dubnoff shaker agitated at 100 cycles/min. Incubation was ceased by the addition of 0.6 ml of 1M acetic acid to the test tube. The iodoformazan formed during the incubation period was extracted into 2 ml of ethyl acetate by adding the ethyl acetate to the test tube, mixing thoroughly, and then decanting the ethyl acetate containing the iodoformazan from the test tube. The optical densities of the iodoformazan containing ethyl acetate layers were read at 490 nm by means of an On Line Instrument Systems, Model 3820 Data System, Spectrophotometry, Cary--15, Version 4 08. An extinction coefficient value of 2.01×10^4 /(M cm) for the iodoformazan product in ethyl acetate was used to calculate enzyme activities.

[2] = tested on: Cytosolic malic enzyme, rat liver; test: Cytosolic malic enzyme activity in liver of steroid-fed rats (enzyme induction in rat liver by C19 steroids); type: in vivo, rat (male Sprague Dawley); details: 6 days, rat liver cytosol
Excerpt: as §1, §2
The Cytosolic fraction was obtained by recentrifuging the previously centrifuged supernatant solution at 100,000 g for 30 minutes in a Beckman Model L2 ultracentrifuge, type 40 rotor. The resultant supernatant solution was stored at -70° C.
as §3
Cytosolic malic enzyme activity was measured in accordance with the method described in Hsu, R. Y. and Lardy, H. A., Methods Enzymol., vol. 8, pp 230-235 (1967). Briefly, aliquots of the previously prepared cytosol containing 0.1 to 0.5 mg of protein were incubated in a test tube containing 0.8 mM malate, 67 mM triethanolamine buffer (pH 7.4), 4 mM MnCl2, and 0.2 mM NADP in a total volume of 1 ml for 3 min at 26° C. Activity of malic enzyme was calculated from the rate of change in optical density measured at 340 nm from 0.5 to 2 minutes with an On Line Instrument Systems, Model 3820 Data System, Spectrophotometry, Cary--15, Version 4.08.

## C[C@]12CC[C@H](O)CC1=CC(=O)[C@@H]1[C@@H]2CC[C@]2(C)C(=O)CC[C@@H]12 [7-keto DHEA, Δ5-Androstene-3β-ol-7,17-dione]
[1]; 0.01 wt % steroid in diet
  G3P-DH (% control): 183 % control
[1]; 0.05 wt % steroid in diet
  G3P-DH (% control): 439 % control
[1]; 0.0575 wt % steroid in diet
  G3P-DH (% control): 224 % control
[1]; 0.1 wt % steroid in diet
  G3P-DH (% control): 220 % control
[2]; 0.01 wt % steroid in diet
  Malic Enzyme (% control): 229 % control
[2]; 0.05 wt % steroid in diet
  Malic Enzyme (% control): 449 % control
[2]; 0.0575 wt % steroid in diet
  Malic Enzyme (% control): 341 % control
[2]; 0.1 wt % steroid in diet
  Malic Enzyme (% control): 350 % control

## C[C@]12CC[C@H](O)CC1=CC[C@@H]1[C@@H]2CC[C@]2(C)C(=O)CC[C@@H]12 [DHEA, Δ5-androstene 3β-hydroxy, 17-one, reference compound]
[1]; 0.01 wt % steroid in diet
  G3P-DH (% control): 139 % control
[1]; 0.05 wt % steroid in diet
  G3P-DH (% control): 251 % control
[1]; 0.1 wt % steroid in diet
  G3P-DH (% control): 265 % control
[1]; 0.2 wt % steroid in diet
  G3P-DH (% control): 380 % control
[2]; 0.01 wt % steroid in diet
  Malic Enzyme (% control): 64 % control
[2]; 0.05 wt % steroid in diet
  Malic Enzyme (% control): 337 % control
[2]; 0.1 wt % steroid in diet
  Malic Enzyme (% control): 394 % control
[2]; 0.2 wt % steroid in diet
  Malic Enzyme (% control): 512 % control

## C[C@]12CC[C@H]3[C@@H]([C@H](O)C=C4C[C@@H](O)CC[C@@]43CO)[C@@H]1CCC2=O [Δ5 Androstene 3β,7α,19-ol-17-one, reference compound]
[1]; 0.1 wt % steroid in diet
  G3P-DH (% control): 117 % control
[2]; 0.1 wt % steroid in diet
  Malic Enzyme (% control): 118 % control

## C[C@]12CC[C@H](O)CC1=C[C@@H](O)[C@@H]1[C@@H]2CC[C@]2(C)C(=O)CC[C@@H]12 [Δ5 Androstene 3β,7α-ol-17-one, Δ5-Androstene 3β,7α-diol-17-one]
[1]; 0.033 wt % steroid in diet
  G3P-DH (% control): 308 % control
[1]; 0.05 wt % steroid in diet
  G3P-DH (% control): 292 % control
[2]; 0.033 wt % steroid in diet
  Malic Enzyme (% control): 374 % control
[2]; 0.05 wt % steroid in diet
  Malic Enzyme (% control): 423 % control

## C[C@]12CC[C@H]3[C@@H]([C@H](O)C=C4C[C@@H](O)CC[C@@]43C)[C@@H]1CC[C@@H]2O [Δ5-Androstene 3β,7α,17β-triol]
[1]; 0.01 wt % steroid in diet
  G3P-DH (% control): 99 % control
[1]; 0.1 wt % steroid in diet
  G3P-DH (% control): 227 % control
[2]; 0.01 wt % steroid in diet
  Malic Enzyme (% control): 108 % control
[2]; 0.1 wt % steroid in diet
  Malic Enzyme (% control): 611 % control

## C[C@]12CC[C@H]3[C@@H](C(=O)C=C4C[C@@H](O)CC[C@@]43C)[C@@H]1CC[C@@H]2O [Δ5-Androstene 3β,17β-diol-7-one, Δ5-Androstene-3β,17β-diol-7-one]
[1]; 0.01 wt % steroid in diet
  G3P-DH (% control): 130 % control
[1]; 0.05 wt % steroid in diet
  G3P-DH (% control): 360 % control
[1]; 0.1 wt % steroid in diet
  G3P-DH (% control): 286 % control
[2]; 0.01 wt % steroid in diet
  Malic Enzyme (% control): 175 % control
[2]; 0.05 wt % steroid in diet
  Malic Enzyme (% control): 305 % control

## CC(=O)O[C@H]1CC[C@@]2(C)C(=CC(=O)[C@@H]3[C@@H]2CC[C@]2(C)C(=O)CC[C@@H]32)C1 [Δ5-Androstene-3β-ol-7,17-one acetate, Δ5-Androstene 3β-acetoxy-7,17-dione]
[1]; 0.115 wt % steroid in diet
  G3P-DH (% control): 261 % control
[2]; 0.115 wt % steroid in diet
  Malic Enzyme (% control): 447 % control

## CC1C=C2C[C@@H](O)CC[C@]2(C)[C@H]2CC[C@]3(C)C(=O)CC[C@H]3[C@H]12 (stereo partly drawn) [Δ5-Androstene-3β-ol-7-methyl-17-one, reference compound]
[1]; 0.1 wt % steroid in diet
  G3P-DH (% control): 91 % control
[2]; 0.1 wt % steroid in diet
  Malic Enzyme (% control): 121 % control

## CC(=O)O[C@H]1CC[C@@]2(C)C(=CC(=O)[C@H]3[C@@H]4CC[C@H](OC(C)=O)[C@@]4(C)CC[C@@H]32)C1 [Δ5-androstene 3β,17β-diol-7-one diacetate]
[1]; 0.01 wt % steroid in diet
  G3P-DH (% control): 173 % control
[1]; 0.13 wt % steroid in diet
  G3P-DH (% control): 232 % control
[2]; 0.01 wt % steroid in diet
  Malic Enzyme (% control): 119 % control
[2]; 0.13 wt % steroid in diet
  Malic Enzyme (% control): 452 % control
